Experimental data taken from ChEMBL document CHEMBL3124745, “4-Bicyclic heteroaryl-piperidine derivatives as potent, orally bioavailable stearoyl-CoA desaturase-1 (SCD1) inhibitors: part 2. Pyridazine-based analogs” (Bioorg Med Chem Lett, 2014).
Values belong to the compound of their own block, whether it stands above or below them.

What was measured:
[1] = target: T1, Acyl-CoA desaturase 1 (Rattus norvegicus, UniProt P07308); experiment: Inhibition of SCD1 in Sprague-Dawley rat liver microsomes using stearoyl-[9,10-3H]-CoA as substrate
T1 sequence (P07308 whole entry): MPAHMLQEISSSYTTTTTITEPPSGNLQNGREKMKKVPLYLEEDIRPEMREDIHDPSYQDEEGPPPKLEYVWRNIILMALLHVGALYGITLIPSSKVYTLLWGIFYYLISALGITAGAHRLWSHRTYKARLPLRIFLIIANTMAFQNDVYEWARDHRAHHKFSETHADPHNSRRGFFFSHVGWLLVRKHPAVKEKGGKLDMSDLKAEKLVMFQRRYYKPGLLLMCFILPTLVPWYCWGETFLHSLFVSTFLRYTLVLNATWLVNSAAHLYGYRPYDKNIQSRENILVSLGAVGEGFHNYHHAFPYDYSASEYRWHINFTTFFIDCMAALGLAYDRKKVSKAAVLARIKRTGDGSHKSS

[2] = target: T2, Stearoyl-CoA desaturase (Homo sapiens, UniProt O00767); experiment: Inhibition of SCD1 in human A431 cells assessed as [13C]-palmitic acid conversion to [13C]-palmitoleic acid after 4 hrs by LC/MS analysis; type: cell-based, A-431
T2 sequence (O00767 whole entry): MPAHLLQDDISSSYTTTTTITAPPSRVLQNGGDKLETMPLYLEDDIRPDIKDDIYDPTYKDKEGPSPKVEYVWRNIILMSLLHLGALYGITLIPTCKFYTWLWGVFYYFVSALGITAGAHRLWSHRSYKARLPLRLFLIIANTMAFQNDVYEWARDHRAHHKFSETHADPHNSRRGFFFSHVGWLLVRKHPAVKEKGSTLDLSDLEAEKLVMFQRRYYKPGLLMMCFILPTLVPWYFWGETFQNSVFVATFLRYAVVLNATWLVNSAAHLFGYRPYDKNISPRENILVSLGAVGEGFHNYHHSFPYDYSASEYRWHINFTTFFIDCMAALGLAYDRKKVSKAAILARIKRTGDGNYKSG

[3] = system: Rattus norvegicus; experiment: Antiobesity activity in Zucker fa/fa rat assessed as effect on body weight gain at 1 mg/kg measured on day 22 (reference value: 142 +/- 4 g); type: functional
[4] = Cmax in Sprague-Dawley rat at 10 mg/kg, po; type: ADME, organism-based; design: dose 10 mg/kg, route oral; details: in vivo
[5] = system: Rattus norvegicus; experiment: Toxicity in Zucker fa/fa rat assessed as narrow eye fissure at 10 mg/kg; type: organism-based; design: dose 10 mg/kg; details: in vivo
[6] = Cmax in Zucker fa/fa rat at 10 mg/kg, po; type: ADME, organism-based; design: dose 10 mg/kg, route oral; details: in vivo
[7] = AUC (24 hrs) in Zucker fa/fa rat at 10 mg/kg, po; type: ADME, organism-based; design: time < 24 hr, dose 10 mg/kg, route oral; details: plasma
[8] = system: Rattus norvegicus; experiment: Antiobesity activity in Zucker fa/fa rat assessed as effect on body weight gain at 10 mg/kg measured on day 26 (reference value: 161 +/- 8 g); type: functional
[9] = system: Rattus norvegicus; experiment: Antiobesity activity in Zucker fa/fa rat assessed as effect on body weight gain at 10 mg/kg measured on day 22 (reference value: 142 +/- 4 g); type: functional
[10] = organism: Rattus norvegicus; experiment: Antiobesity activity in Zucker fa/fa rat assessed as decrease in C18:1 to C18:0 plasma desaturation index after 26 days; type: functional, organism-based
[11] = system: Rattus norvegicus; experiment: Antiobesity activity in Zucker fa/fa rat assessed as reduction in body weight gain at 3 mg/kg after 26 days relative to control; type: functional; design: scale not given: the % may be the effect or the level left
[12] = system: Rattus norvegicus; experiment: Antiobesity activity in Zucker fa/fa rat assessed as effect on body weight gain at 1 mg/kg measured on day 15 (reference value: 103 +/- 4 g); type: functional
[13] = system: Rattus norvegicus; experiment: Toxicity in Zucker fa/fa rat assessed as change in food intake at 1 to 3 mg/kg after 26 days; type: organism-based; design: dose 1-3 mg/kg; details: in vivo, 624 h
[14] = system: Mus musculus; experiment: Antiobesity activity in diet-induced obese C57BL/6 mouse assessed as change in body weight at 30 mg/kg, po qd for 10 days (reference value: 2.8 +/- 0.3 g); type: functional
[15] = Clearance in Sprague-Dawley rat at 2 mg/kg, iv; type: ADME, organism-based; design: dose 2 mg/kg, route intravenous; details: in vivo
[16] = system: Rattus norvegicus; experiment: Antiobesity activity in Zucker fa/fa rat assessed as C16:1 to C16:0 plasma desaturation index at 10 mg/kg after 26 days (reference value: 0.183 +/- 0.012); type: functional
[17] = system: Rattus norvegicus; experiment: Antiobesity activity in Zucker fa/fa rat assessed as C16:1 to C16:0 plasma desaturation index at 3 mg/kg after 26 days (reference value: 0.183 +/- 0.012); type: functional
[18] = system: Rattus norvegicus; experiment: Antiobesity activity in Zucker fa/fa rat assessed as C18:1 to C18:0 plasma desaturation index at 10 mg/kg after 26 days (reference value: 2.16 +/- 0.07); type: functional
[19] = system: Rattus norvegicus; experiment: Antiobesity activity in Zucker fa/fa rat assessed as effect on body weight gain at 3 mg/kg measured on day 8 (reference value: 61 +/- 7 g); type: functional
[20] = organism: Rattus norvegicus; experiment: Antiobesity activity in Zucker fa/fa rat assessed as decrease in C16:1 to C16:0 plasma desaturation index after 26 days; type: functional, organism-based
[21] = Oral bioavailability in Zucker fa/fa rat at 10 mg/kg; type: ADME, organism-based; details: in vivo
[22] = system: Rattus norvegicus; experiment: Antiobesity activity in Zucker fa/fa rat assessed as effect on body weight gain at 1 mg/kg measured on day 8 (reference value: 61 +/- 7 g); type: functional
[23] = system: Rattus norvegicus; experiment: Antiobesity activity in Zucker fa/fa rat assessed as effect on body weight gain at 3 mg/kg measured on day 15 (reference value: 103 +/- 4 g); type: functional
[24] = system: Rattus norvegicus; experiment: Hepatotoxicity in Zucker fa/fa rat assessed as increase in AST level at 1 to 10 mg/kg; type: toxicity, organism-based; design: dose 1-10 mg/kg; details: in vivo
[25] = system: Rattus norvegicus; experiment: Antiobesity activity in Zucker fa/fa rat assessed as reduction in body weight gain at 10 mg/kg after 26 days relative to control; type: functional; design: scale not given: the % may be the effect or the level left
[26] = system: Rattus norvegicus; experiment: Antiobesity activity in Zucker fa/fa rat assessed as reduction in body weight gain at 1 mg/kg after 26 days relative to control; type: functional; design: scale not given: the % may be the effect or the level left
[27] = system: Mus musculus; experiment: Toxicity in diet-induced obese C57BL/6 mouse assessed as narrow eye fissure at 30 mg/kg, po; type: organism-based; design: dose 30 mg/kg, route oral; details: in vivo
[28] = Oral bioavailability in Sprague-Dawley rat at 10 mg/kg; type: ADME, organism-based; details: in vivo
[29] = system: Rattus norvegicus; experiment: Antiobesity activity in Zucker fa/fa rat assessed as effect on body weight gain at 10 mg/kg measured on day 8 (reference value: 61 +/- 7 g); type: functional
[30] = system: Rattus norvegicus; experiment: Toxicity in Zucker fa/fa rat assessed as reduction in food intake at 10 mg/kg after 22 days relative to control; type: organism-based; design: dose 10 mg/kg; scale not given: the % may be the effect or the level left; details: in vivo, 528 h
[31] = system: Rattus norvegicus; experiment: Hepatotoxicity in Zucker fa/fa rat assessed as increase in ALT level at 1 to 10 mg/kg; type: toxicity, organism-based; design: dose 1-10 mg/kg; details: in vivo
[32] = system: Rattus norvegicus; experiment: Antiobesity activity in Zucker fa/fa rat assessed as effect on body weight gain at 3 mg/kg measured on day 26 (reference value: 161 +/- 8 g); type: functional
[33] = AUC (24 hrs) in Sprague-Dawley rat at 10 mg/kg, po; type: ADME, organism-based; design: time < 24 hr, dose 10 mg/kg, route oral; details: plasma
[34] = system: Rattus norvegicus; experiment: Antiobesity activity in Zucker fa/fa rat assessed as effect on body weight gain at 1 mg/kg measured on day 26 (reference value: 161 +/- 8 g); type: functional
[35] = system: Rattus norvegicus; experiment: Antiobesity activity in Zucker fa/fa rat assessed as effect on body weight gain at 3 mg/kg measured on day 22 (reference value: 142 +/- 4 g); type: functional
[36] = system: Rattus norvegicus; experiment: Antiobesity activity in Zucker fa/fa rat assessed as effect on body weight gain at 10 mg/kg measured on day 15 (reference value: 103 +/- 4 g); type: functional
[37] = organism: Rattus norvegicus; experiment: Antiobesity activity in Zucker fa/fa rat assessed as reduction in body weight gain after 26 days; type: functional, organism-based
[38] = Volume of distribution in Sprague-Dawley rat at 2 mg/kg, iv; type: ADME, organism-based; design: dose 2 mg/kg, route intravenous; details: in vivo
[39] = Metabolic stability in human liver microsomes assessed as compound remaining measured at 10 mins; type: ADME; details: read-out: Stability
[40] = Metabolic stability in rat liver microsomes assessed as compound remaining measured at 10 mins; type: ADME; details: read-out: Stability

SMILES: Cn1cc(-c2ccc(N3CCC(N4CCc5ccc(F)cc54)CC3)nn2)cn1
Activity [3]: 116 g
Cmax [4]: 4400 ng/mL
Activity [5]: Toxic
Cmax [6]: 1600 ng/mL
AUC at 24 h [7]: 10800 ng·h/mL
Activity [8]: 78 g
Activity [9]: 72 g
Activity [10]: Dose-dependent effect
Activity [11]: 22%
Activity [12]: 80 g
Activity [13]: Non-toxic
Activity [14]: -2.1 g
clearance [15]: 3.3 mL/min/kg
Activity [16]: 0.078
Activity [17]: 0.088
Activity [18]: 0.92
Activity [19]: 44 g
Activity [20]: Dose-dependent effect
bioavailability [21]: 11%
Activity [22]: 42 g
Activity [23]: 80 g
Activity [24]: Non-toxic
Activity [25]: 51%
Activity [26]: 17%
Activity [27]: Toxic
bioavailability [28]: 105%
Activity [29]: 29 g
Activity [30]: 10%
Activity [31]: Non-toxic
Activity [32]: 125 g
AUC at 24 h [33]: 38800 ng·h/mL
Activity [34]: 133 g
Activity [35]: 112 g
Activity [36]: 57 g
Activity [37]: Dose-dependent effect
Vd [38]: 0.52 L/kg

SMILES: CCOc1cnn(-c2ccc(N3CCC(N4CCc5ccc(F)cc54)CC3)nn2)c1
remaining at 10 min [39]: < 50%
IC50 [1]: 8 nM
IC50 [2]: 9 nM
remaining at 10 min [40]: < 50%

SMILES: CCn1cc(-c2ccc(N3CCC(N4CCc5ccc(F)cc54)CC3)nn2)cn1
IC50 [2]: 30 nM

SMILES: Cc1ccc(-c2ccc(N3CCC(N4CCc5ccc(F)cc54)CC3)nn2)cc1
IC50 [2]: 11 nM

SMILES: Cc1cnc(-c2ccc(N3CCC(N4CCc5ccc(F)cc54)CC3)nn2)s1
IC50 [2]: 12 nM

SMILES: OCCn1cc(-c2ccc(N3CCC(N4CCc5ccc(F)cc54)CC3)nn2)cn1
Activity [14]: 0.5 g
IC50 [1]: 22 nM

SMILES: OCc1ccc(-c2ccc(N3CCC(N4CCc5ccc(F)cc54)CC3)nn2)cn1
Activity [14]: -2.2 g

Continued, in another order:

IC50 [1]: 13 nM
SMILES: Cc1ccc(-c2ccc(N3CCC(N4CCc5ccc(F)cc54)CC3)nn2)cn1

IC50 [1]: 17 nM
IC50 [2]: 30 nM
SMILES: CN(C)c1ccc(-c2ccc(N3CCC(N4CCc5ccc(F)cc54)CC3)nn2)cn1

remaining at 10 min [39]: < 50%
remaining at 10 min [40]: < 50%
SMILES: CCOCCn1cc(-c2ccc(N3CCC(N4CCc5ccc(F)cc54)CC3)nn2)cn1

IC50 [2]: 51 nM
SMILES: Cn1cc(-c2ccc(N3CCC(n4ncc5ccc(F)cc54)CC3)nn2)cn1
Activity [14]: -3.3 g

remaining at 10 min [39]: < 50%
remaining at 10 min [40]: < 50%
SMILES: CCCn1cc(-c2ccc(N3CCC(N4CCc5ccc(F)cc54)CC3)nn2)cn1

IC50 [1]: 17 nM
IC50 [2]: 6 nM
SMILES: OCc1cnn(-c2ccc(N3CCC(N4CCc5ccc(F)cc54)CC3)nn2)c1
Activity [14]: 1.2 g
